Measured values: US9993554B2 (CENTRO NACIONAL DE INVESTIGACIONES ONCOLOGICAS (CNIO), priority 2010, dated 2018)

Assays:
pre-brown adipocytes = experiment: Immortalized neonatal (pre-)brown adipocytes treated with PI3K inhibitors: phospho-Akt and Ucp1 mRNA; assay type: cell-based, mice; details: 4 h
Description: Pre-brown adiposcytes were treated with Compound A or with the indicated PI3KI for 4 h. After this time, extracts were prepared for analysis of phospho-Akt (upper panels) or for analysis of Ucp1 mRNA levels (lower panels).
Mouse Embryonic Fibroblasts (MEFs) were isolated at E13.5 as previously described^42. For insulin stimulation, primary MEFs were serum starved (0% FBS) for 12 h, followed by 60 min incubation with PBS and then stimulated with 1 μg/ml of insulin (Sigma) during 30 min. For oncogenic transformation, primary MEFs were retrovirally transduced with pLXSN-neo-E6 and either pWZL-blast-middle-T (kindly provided by Jean Zhao, Dana-Farber Cancer Institute, Boston) or pBABE-puro-EGFRL858R (kindly provided by William Sellers and Matthew Meyerson, Addgene plasmid #11012)^43. After the corresponding drug selection 20,000 cells were plated in 10 cm diameter plates, and 2 weeks later were fixed and stained with 20% Giemsa. Immortalized brown adipocyte cell lines were obtained from the interscapular BAT of 3-5 day-old neonates, treated with and cultured as previously described^33. For immortalization, cultures were retrovirally transduced with Large-T antigen (in vector pBABE-puro, kindly provided by James de Caprio, Dana Farber Cancer Institute, Boston). For the reprogramming of 3T3-L1 adipocytes into brownadipocytes, we followed the method previously reported^50. Briefly, 3T3-L1 cells were retrovirally transduced with pBABE-puro-Cebpb (kindly provided by Roger R. Gomis, IRB, Barcelona). After drug selection with puromycin, cells were grown to confluence and subsequently cultured for 48 h with “differentiation medium” (DMEM 10% FBS, 20 nM insulin, 1 nM T3, 1 μM rosiglitazone, 0.5 mM isobutylmethylxanthine, 125 nM indomethacin, 5 μM dexamethasone). After this, cells were exposed to “maintenance medium” (DMEM 10% FBS, 20 nM insulin, 1 nM T3) for 4 days. For the experiment shown in FIG. 4d, differentiated 3T3-L1/Cebpβ or non-differentiated neonatal immortalized brown adipocytes cultures were PBS washed and treated with “regular medium” (DMEM 10% FBS) containing 10 μM forskolin (Sigma) and/or or 1 μM Compound A for 4 h.
Immortalized brown adipocytes were obtained from the interscapular BAT of 3-5 day-old neonates and immortalized by retroviral transduction of Large-T antigen (in vector pBABE-puro, kindly provided by James de Caprio, Dana Farber Cancer Institute, Boston). […]
For RNA analyses, total RNA from pre-brown adipocytes was extracted using TRIZOL (Invitrogen). Reverse transcription was performed using random primers and Ready-To-Go™ You-Prime First-Strand Beads (GE Healthcare). Quantitative real time-PCR was performed using DNA Master Sybr Green I mix (Applied Biosystems) in an ABI PRISM 7700 thermocycler (Applied Biosystem). […]

[1] = tested on: obese mice under high-fat diet; experiment: Body weight and food intake of obese mice under high-fat diet; assay type: in vivo; details: 10 mg/kg, ad libitum high-fat food
Description: Obese mice under long-term high-fat (HFD) were dosed with Compound A or with the indicated PI3KI by gavage once per day, during 2 weeks, resting the intervening week-end, and always with ad libitum access to HFD. During the two weeks of treatment, it was scored the amount of food intake (upper left panel) and the change in body weight relative to the initiation of the treatment (upper right panel). The final relative change in body weight is also represented (lower panel). The weight of non-obese littermates (always fed with standard diet, SD) is marked for reference.
Mice were fed either with a standard chow diet (Harlan Teklad 2018, 18% calories from fat) or, when indicated, with a high fat diet (Research Diets D12451, 45% of total calories from fat). To measure food intake, mice were housed in metabolic cages during 5 days, and food and water intake, as well as, the output of faeces and urine were measured during the last 4 days. Body composition (fat and lean content) was determined by Dual energy X-ray Absorptiometry (DXA) (Lunar PIXImus Densitometer, GE Medical Systems). Image acquisition lasted 5 minutes with mice under anesthesia by inhalation of 2% isofluorane in 100% oxygen. The analysis of lean mass and fat mass was performed using a Region Of Interest (ROI) comprising the entire body. […]

phospho-Ser-473-Akt = experiment: AKT phosphorylation inhibition, Western blot cell assay; assay type: cell-based; details: Homo sapiens; read-out: IC50, cell assay (p-AKT Western Blot)
Description: The cell lines were obtained from the American Type Culture Collection (ATCC). U2OS (human osteosarcoma) was cultured in Dulbecco's modified Eagle's medium (DMEM). PC3 (human prostate carcinoma), MCF7 (human breast cardinoma), HCT116 (human colon carcinoma), 768-0 (human neuroblastoma), U251 (human glyoblastoma) were grown in RPMI. All media were supplemented with 10% fetal bovine serum (FBS) (Sigma) and antibiotics-antimycotics. Cell were maintained in a humidified incubator at 37° C. with 5% CO2 and passaged when confluent using trypsin/EDTA.
Subconfluent cells were incubated under different conditions and washed twice with TBS prior to lysis. Lysis buffer was added containing 50 mM Tris HCl, 150 mM NaCl, 1% NP-40, 2 mM Na3VO4, 100 mM NaF, 20 mM Na4P2O7 and protease inhibitor cocktail (Roche Molecular Biochemicals). The proteins were resolved on 10% SDS-PAGE and transferred to nitrocellulose membrane (Schleicher & Schuell, Dassel, Germany). The membranes were incubated overnight at 4° C. with antibodies specific for Akt, phospho-Ser-473-Akt (Cell Signaling Technology) and α-tubulin (Sigma), they were washed and then incubated with IRDye800 conjugated anti-mouse and Alexa Fluor 680 goat anti-rabbit IgG secondary antibodies. The bands were visualized using an Odyssey infrared imaging system (Li-Cor Biosciences).

- IC50 (phospho-Ser-473-Akt): 5 nM
Compound: CS(=O)(=O)N1CCN(Cc2cn3c(Cl)c(-c4cnc(N)nc4)nc(N4CCOCC4)c3n2)CC1 [Compound A]
- inhibition of the phosphorylation of Akt (pre-brown adipocytes; 1 microM): measurable inhibition
- up-regulation of Ucp1 mRNA levels (pre-brown adipocytes; 10-20 microM): 8-20 fold
- inhibition of the phosphorylation of Akt (pre-brown adipocytes; 10 microM): complete inhibition
- expression of Ucp1 (pre-brown adipocytes; immortalized neonatal brown adipocytes (three independent lines), 1 μM): upregulated
- decrease of body weight ([1]; gavage once a day for 2 weeks): approx. 10%
- food intake ([1]; during treatment): did not change significantly
